Assay results: the CheMixHub ionic liquid set
± gives the uncertainty stated by the source.

Experiment: xn = mol fraction of the nth substance listed

CCn1cc[nH+]c1.O=S(=O)([N-]S(=O)(=O)C(F)(F)F)C(F)(F)F + O
Settings	electrical conductivity [S/m]	viscosity [mPa·s]
297.55 K, 101 kPa, x1 = 0.5	–	15.8 ± 0.5
297.55 K, 101 kPa, x1 = 0.889	–	44.9 ± 1.5
303.15 K, 100 kPa, x1 = 0.366	1.77 ± 0.11	–
303.15 K, 100 kPa, x1 = 0.403	1.6 ± 0.096	–
303.15 K, 100 kPa, x1 = 0.427	1.53 ± 0.092	–
303.15 K, 100 kPa, x1 = 0.455	1.44 ± 0.086	–
303.15 K, 100 kPa, x1 = 0.491	1.35 ± 0.081	–
303.15 K, 100 kPa, x1 = 0.519	1.24 ± 0.075	–
303.15 K, 100 kPa, x1 = 0.554	1.15 ± 0.069	–
303.15 K, 100 kPa, x1 = 0.592	1.05 ± 0.063	–
303.15 K, 100 kPa, x1 = 0.634	0.948 ± 0.057	–
303.15 K, 100 kPa, x1 = 0.684	0.845 ± 0.051	–
303.15 K, 100 kPa, x1 = 0.712	0.785 ± 0.047	–
303.15 K, 100 kPa, x1 = 0.743	0.729 ± 0.044	–
303.15 K, 100 kPa, x1 = 0.776	0.672 ± 0.04	–
303.15 K, 100 kPa, x1 = 0.811	0.619 ± 0.037	–
303.15 K, 100 kPa, x1 = 0.851	0.57 ± 0.034	–
303.15 K, 100 kPa, x1 = 0.896	0.516 ± 0.031	–
303.15 K, 100 kPa, x1 = 0.943	0.464 ± 0.028	–
303.15 K, 100 kPa, x2 = 0.003	0.424 ± 0.025	–

COP(=O)([O-])OC.C[N+]1(CCO)CCCC1 + CCO
100 kPa
Settings	viscosity [mPa·s]
293.15 K, x1 = 0.1077	4.74 ± 0.29
293.15 K, x1 = 0.2079	12.31 ± 0.74
293.15 K, x1 = 0.3084	32 ± 1.9
293.15 K, x1 = 0.4033	55.9 ± 3.4
293.15 K, x1 = 0.5077	123 ± 7.7
293.15 K, x1 = 0.7053	402 ± 29
298.15 K, x1 = 0.7053	295 ± 20
298.15 K, x1 = 0.8055	478 ± 35
303.15 K, x1 = 0.0561	2.02 ± 0.12
303.15 K, x1 = 0.2079	9.66 ± 0.58
303.15 K, x1 = 0.3084	23.7 ± 1.4
303.15 K, x1 = 0.5077	78.2 ± 4.8
308.15 K, x1 = 0.0561	1.73 ± 0.1
308.15 K, x1 = 0.1077	3.54 ± 0.21
308.15 K, x1 = 0.1523	5.76 ± 0.35
308.15 K, x1 = 0.3084	21.1 ± 1.3
313.15 K, x1 = 0.9053	277 ± 19
318.15 K, x1 = 0.2079	7.02 ± 0.42
318.15 K, x1 = 0.2537	10.45 ± 0.63
318.15 K, x1 = 0.4033	26.5 ± 1.6
318.15 K, x1 = 0.5077	44.7 ± 2.7
318.15 K, x1 = 1	273 ± 19
323.15 K, x1 = 0.5077	38.1 ± 2.3
323.15 K, x1 = 0.6042	60 ± 3.6
328.15 K, x1 = 0.2079	5.83 ± 0.35
328.15 K, x1 = 0.3084	12.98 ± 0.78
328.15 K, x1 = 0.6042	50.4 ± 3
333.15 K, x1 = 0.4033	17.9 ± 1.1
333.15 K, x1 = 0.7053	54.1 ± 3.3
338.15 K, x1 = 0.4033	16.24 ± 0.98
338.15 K, x1 = 0.5077	23.8 ± 1.4
338.15 K, x1 = 0.6042	35.9 ± 2.2
338.15 K, x1 = 0.8055	60.9 ± 3.7

CCCC[N+](C)(C)C[c-]1cccc1.O=S(=O)([N-]S(=O)(=O)C(F)(F)F)C(F)(F)F.[Fe+2].c1cc[cH-]c1 + CC#N
100 kPa
Settings	electrical conductivity [S/m]
298 K, x1 = 0.03	2.17 ± 0.044
303 K, x1 = 0.1	1.88 ± 0.038
308 K, x1 = 0.08	2.2 ± 0.044
308 K, x1 = 0.2	0.945 ± 0.019
313 K, x1 = 0.07	2.47 ± 0.05
318 K, x1 = 0.01	1.58 ± 0.032
318 K, x1 = 0.06	2.67 ± 0.054
318 K, x1 = 0.08	2.47 ± 0.049
318 K, x1 = 0.15	1.58 ± 0.032
318 K, x1 = 0.2	1.14 ± 0.023
323 K, x1 = 0.01	1.64 ± 0.033
323 K, x1 = 0.2	1.24 ± 0.025
328 K, x1 = 0.05	2.95 ± 0.059
328 K, x1 = 0.12	2.19 ± 0.044
333 K, x1 = 0.01	1.75 ± 0.035
333 K, x1 = 0.02	2.5 ± 0.05
333 K, x1 = 0.03	2.92 ± 0.058
333 K, x1 = 0.07	3 ± 0.06
338 K, x1 = 0.05	3.2 ± 0.064
338 K, x1 = 0.07	3.15 ± 0.063
343 K, x1 = 0.07	3.28 ± 0.066
343 K, x1 = 0.08	3.15 ± 0.063
343 K, x1 = 0.15	2.19 ± 0.044
348 K, x1 = 0.02	2.76 ± 0.055
348 K, x1 = 0.07	3.42 ± 0.069
348 K, x1 = 0.08	3.3 ± 0.066
348 K, x1 = 0.12	2.74 ± 0.055

CCC(=O)CC + CCCC[n+]1ccn(C)c1.F[P-](F)(F)(F)(F)F
298.15 K, 101.3 kPa
Settings	viscosity [mPa·s]
x1 = 0.1927	81.4 ± 3.9
x1 = 0.3014	42.7 ± 1.3
x1 = 0.5009	13.36 ± 0.34
x1 = 0.652	5.36 ± 0.14

O=S(=O)([N-]S(=O)(=O)C(F)(F)F)C(F)(F)F.[Li+] + OCCO
Settings	electrical conductivity [S/m]
333 K, 100 kPa, frequency 1 MHz, x1 = 0.5	0.8 ± 0.08

Settings	viscosity [mPa·s]
333 K, 100 kPa, x1 = 0.5	21.68 ± 0.23

CC[N+](CC)(CC)CCCS(=O)(=O)O.F[B-](F)(F)F + O
298 K, 101 kPa
Settings	electrical conductivity [S/m]
x1 = 0.00077	1.03
x1 = 0.002	1.68
x1 = 0.01495	2.42
x1 = 0.02005	2.22

CCCCn1cc[n+](C)c1C.O=S(=O)([N-]S(=O)(=O)C(F)(F)F)C(F)(F)F + COC(=O)OC
viscosity [mPa·s], 101.3 kPa
Settings	288.15 K	293.15 K	298.15 K	303.15 K	308.15 K	313.15 K
x1 = 0.003134	0.698 ± 0.015	0.653 ± 0.014	0.611 ± 0.013	0.575 ± 0.013	0.541 ± 0.012	0.511 ± 0.011
x1 = 0.003617	0.704 ± 0.015	0.658 ± 0.014	0.615 ± 0.013	0.579 ± 0.013	0.544 ± 0.012	0.513 ± 0.011
x1 = 0.004671	0.717 ± 0.016	0.669 ± 0.015	0.626 ± 0.014	0.588 ± 0.013	0.553 ± 0.012	0.522 ± 0.011
x1 = 0.005144	0.722 ± 0.016	0.674 ± 0.015	0.63 ± 0.014	0.592 ± 0.013	0.557 ± 0.012	0.525 ± 0.011
x1 = 0.007528	0.753 ± 0.016	0.701 ± 0.015	0.655 ± 0.014	0.614 ± 0.013	0.578 ± 0.013	0.544 ± 0.012
x1 = 0.008467	0.763 ± 0.017	0.711 ± 0.016	0.664 ± 0.015	0.622 ± 0.014	0.585 ± 0.013	0.551 ± 0.012
x1 = 0.01016	0.786 ± 0.017	0.731 ± 0.016	0.682 ± 0.015	0.639 ± 0.014	0.6 ± 0.013	0.564 ± 0.012
x1 = 0.01046	0.789 ± 0.017	0.734 ± 0.016	0.685 ± 0.015	0.641 ± 0.014	0.602 ± 0.013	0.566 ± 0.012
x1 = 0.01168	0.805 ± 0.018	0.748 ± 0.016	0.697 ± 0.015	0.653 ± 0.014	0.612 ± 0.013	0.577 ± 0.013
x1 = 0.01411	0.833 ± 0.018	0.773 ± 0.017	0.721 ± 0.016	0.674 ± 0.015	0.632 ± 0.014	0.597 ± 0.013
x1 = 0.01541	0.85 ± 0.019	0.788 ± 0.017	0.734 ± 0.016	0.685 ± 0.015	0.643 ± 0.014	0.604 ± 0.013
x1 = 0.01579	0.854 ± 0.019	0.791 ± 0.017	0.738 ± 0.016	0.688 ± 0.015	0.645 ± 0.014	0.606 ± 0.013
x1 = 0.01626	0.86 ± 0.019	0.798 ± 0.017	0.743 ± 0.016	0.693 ± 0.015	0.651 ± 0.014	0.61 ± 0.013
x1 = 0.01704	0.87 ± 0.019	0.807 ± 0.018	0.751 ± 0.016	0.7 ± 0.015	0.657 ± 0.014	0.616 ± 0.013
x1 = 0.01948	0.898 ± 0.02	0.832 ± 0.018	0.773 ± 0.017	0.722 ± 0.016	0.675 ± 0.015	0.634 ± 0.014
x1 = 0.01969	0.901 ± 0.02	0.834 ± 0.018	0.775 ± 0.017	0.723 ± 0.016	0.677 ± 0.015	0.635 ± 0.014
x1 = 0.02378	0.947 ± 0.021	0.876 ± 0.019	0.813 ± 0.018	0.758 ± 0.017	0.709 ± 0.015	0.665 ± 0.015
x1 = 0.02412	0.949 ± 0.021	0.878 ± 0.019	0.816 ± 0.018	0.76 ± 0.017	0.711 ± 0.016	0.667 ± 0.015
x1 = 0.02675	0.977 ± 0.021	0.903 ± 0.02	0.838 ± 0.018	0.781 ± 0.017	0.731 ± 0.016	0.684 ± 0.015
x1 = 0.02717	0.98 ± 0.021	0.907 ± 0.02	0.842 ± 0.018	0.784 ± 0.017	0.734 ± 0.016	0.688 ± 0.015
x1 = 0.03309	1.044 ± 0.023	0.964 ± 0.021	0.894 ± 0.02	0.833 ± 0.018	0.778 ± 0.017	0.729 ± 0.016
x1 = 0.03594	1.073 ± 0.023	0.99 ± 0.022	0.918 ± 0.02	0.855 ± 0.019	0.798 ± 0.017	0.748 ± 0.016
x1 = 0.03715	1.086 ± 0.024	1.002 ± 0.022	0.929 ± 0.02	0.864 ± 0.019	0.807 ± 0.018	0.756 ± 0.017
x1 = 0.0405	1.117 ± 0.024	1.031 ± 0.023	0.957 ± 0.021	0.89 ± 0.019	0.83 ± 0.018	0.777 ± 0.017
x1 = 0.04889	1.211 ± 0.026	1.117 ± 0.024	1.034 ± 0.023	0.96 ± 0.021	0.895 ± 0.02	0.837 ± 0.018

CC[NH2+]CC.O=S(=O)([O-])O + O
Settings	viscosity [mPa·s]
298.15 K, 101 kPa, x2 = 0.6088	32.1 ± 2.2

O=S(=O)([N-]S(=O)(=O)C(F)(F)F)C(F)(F)F.[Li+] + COC(=O)OC
298.1 K, 100 kPa, x1 = 0.333
Settings	electrical conductivity [S/m]	viscosity [mPa·s]
–	0.12 ± 0.01	53.7 ± 1.6

CCCCCC[n+]1ccn(C)c1.O=[N+]([O-])c1cn[n-]c1 + CCCCCCCC[P+](CC)(CC)CC.O=S(=O)([N-]S(=O)(=O)C(F)(F)F)C(F)(F)F
Settings	viscosity [mPa·s]
288.15 K, 100 kPa, x2 = 0.1	770 ± 100

O=S(=O)([N-]S(=O)(=O)C(F)(F)F)C(F)(F)F.[Li+] + CC[n+]1ccn(C)c1.O=S(=O)([N-]S(=O)(=O)C(F)(F)F)C(F)(F)F
101 kPa
Settings	electrical conductivity, x2 = 0.6878 [S/m]	electrical conductivity, x2 = 0.746 [S/m]	electrical conductivity, x2 = 0.7874 [S/m]	electrical conductivity, x2 = 0.8765 [S/m]	electrical conductivity, x2 = 0.9376 [S/m]	viscosity, x2 = 0.8 [mPa·s]
288.15 K	0.094 ± 0.01	0.146 ± 0.015	0.189 ± 0.019	0.351 ± 0.035	0.461 ± 0.046	–
298.15 K	0.175 ± 0.018	0.253 ± 0.026	0.315 ± 0.032	0.539 ± 0.054	0.686 ± 0.069	89.9 ± 7.9
333.15 K	0.739 ± 0.074	0.91 ± 0.091	1.06 ± 0.11	1.53 ± 0.15	1.79 ± 0.18	–
358.15 K	–	–	–	–	–	13.33 ± 0.78

OCCO + CCOS(=O)(=O)[O-].CC[n+]1ccn(C)c1
100 kPa, x1 = 1
Settings	viscosity [mPa·s]
298.15 K	16.8 ± 0.4
303.15 K	13.8 ± 0.3
